The source of these data is ChEMBL document CHEMBL3046685, “Otebo bean (Phaseolus vulgaris) sensitivity to pre-emergence herbicides” (Crop Prot, 2006).

Data set [1] relates to Phaseolus vulgaris. Put plainly: Phytotoxicity in Phaseolus vulgaris (otebo bean) assessed as plant height at 3200 g ai/ha applied as spray during pre-emergence treatment for 1 to 2 days measured 28 days post emergence (reference value: 29 cm). In kind it is organism-based. The conditions noted are these: in vivo, other.
Data set [2] has as its system Phaseolus vulgaris. Put plainly: Phytotoxicity in Phaseolus vulgaris (otebo bean) assessed as plant height at 1600 g ai/ha applied as spray during pre-emergence treatment for 1 to 2 days measured 28 days post emergence (reference value: 29 cm). To be noted: in vivo, other. In kind it is organism-based.
The subject of data set [3] is Phaseolus vulgaris. Kind of data set: Phytotoxicity in Phaseolus vulgaris (otebo bean) assessed as shoot dry weight at 3200 g ai/ha applied as spray during pre-emergence treatment for 1 to 2 days measured 42 days post emergence (reference value: 164 g). The data set is classed as organism-based. To be noted: in vivo, other.
In data set [4] the test system is Phaseolus vulgaris. Kind of data set: Increase in Phaseolus vulgaris (otebo bean) yield at 3200 g ai/ha applied as spray during pre-emergence treatment for 1 to 2 days (reference value: 3.8 t/ha). In kind it is functional.
The subject of data set [5] is Phaseolus vulgaris. Kind of data set: Increase in Phaseolus vulgaris (otebo bean) yield at 1600 g ai/ha applied as spray during pre-emergence treatment for 1 to 2 days (reference value: 3.8 t/ha). In kind it is functional.
Data set [6] deals with Phaseolus vulgaris. Kind of data set: Phytotoxicity in Phaseolus vulgaris (otebo bean) assessed as change in moisture content at 1600 to 3200 g ai/ha applied as spray during preemergence treatment for 1 to 2 days. To be noted: in vivo, other. In kind it is organism-based.
Data set [7] relates to Phaseolus vulgaris. Kind of data set: Phytotoxicity in Phaseolus vulgaris (otebo bean) assessed as shoot dry weight at 1600 g ai/ha applied as spray during pre-emergence treatment for 1 to 2 days measured 42 days post emergence (reference value: 164 g). The data set is classed as organism-based. The conditions noted are these: in vivo, other.
Data set [8] concerns Phaseolus vulgaris. Kind of data set: Phytotoxicity in Phaseolus vulgaris (otebo bean) assessed as visual injury at 3200 g ai/ha applied as spray during pre-emergence treatment for 1 to 2 days measured 28 days post emergence relative to untreated control. In kind it is organism-based. The conditions noted are these: in vivo, other.
The subject of data set [9] is Phaseolus vulgaris. Kind of data set: Phytotoxicity in Phaseolus vulgaris (otebo bean) assessed as visual injury at 1600 g ai/ha applied as spray during pre-emergence treatment for 1 to 2 days measured 28 days post emergence relative to untreated control. The data set is classed as organism-based. The conditions noted are these: in vivo, other.
Data set [10] concerns Phaseolus vulgaris. Kind of data set: Phytotoxicity in Phaseolus vulgaris (otebo bean) assessed as visual injury at 3200 g ai/ha applied as spray during pre-emergence treatment for 1 to 2 days measured 14 days post emergence relative to untreated control. In kind it is organism-based. To be noted: in vivo, other.
The test system of data set [11] is Phaseolus vulgaris. Kind of data set: Phytotoxicity in Phaseolus vulgaris (otebo bean) assessed as visual injury at 1600 g ai/ha applied as spray during pre-emergence treatment for 1 to 2 days measured 14 days post emergence relative to untreated control. To be noted: in vivo, other. In kind it is organism-based.
For data set [12], the system named is Phaseolus vulgaris. Kind of data set: Phytotoxicity in Phaseolus vulgaris (otebo bean) assessed as visual injury at 3200 g ai/ha applied as spray during pre-emergence treatment for 1 to 2 days measured 7 days post emergence relative to untreated control. The data set is classed as organism-based. The conditions noted are these: in vivo, other.
For data set [13], the system named is Phaseolus vulgaris. Put plainly: Phytotoxicity in Phaseolus vulgaris (otebo bean) assessed as visual injury at 1600 g ai/ha applied as spray during pre-emergence treatment for 1 to 2 days measured 7 days post emergence relative to untreated control. In kind it is organism-based. To be noted: in vivo, other.
For data set [14], the system named is Phaseolus vulgaris. Put plainly: Phytotoxicity in Phaseolus vulgaris (otebo bean) assessed as plant height at 75 g ai/ha applied as spray during pre-emergence treatment for 1 to 2 days measured 28 days post emergence (reference value: 29 cm). To be noted: in vivo, other. In kind it is organism-based.
The test system of data set [15] is Phaseolus vulgaris. Put plainly: Phytotoxicity in Phaseolus vulgaris (black bean) assessed as visual injury treated through soil application relative to control. To be noted: in vivo, other. The data set is classed as organism-based.
The subject of data set [16] is Phaseolus vulgaris. Put plainly: Phytotoxicity in Phaseolus vulgaris (cranberry bean) assessed as visual injury at 0.075 to 0.15 kg/ha applied during pre-emergence relative to control. In kind it is organism-based. To be noted: in vivo, other.
In data set [17] the test system is Phaseolus vulgaris. Kind of data set: Increase in Phaseolus vulgaris (otebo bean) yield at 150 g ai/ha applied as spray during pre-emergence treatment for 1 to 2 days (reference value: 3.8 t/ha). The data set is classed as functional.
The subject of data set [18] is Phaseolus vulgaris. Kind of data set: Increase in Phaseolus vulgaris (otebo bean) yield at 75 g ai/ha applied as spray during pre-emergence treatment for 1 to 2 days (reference value: 3.8 t/ha). The data set is classed as functional.
The subject of data set [19] is Phaseolus vulgaris. Put plainly: Phytotoxicity in Phaseolus vulgaris (black bean) assessed as reduction in crop yield treated through soil application relative to control. The data set is classed as organism-based. To be noted: in vivo, other.
The test system of data set [20] is Phaseolus vulgaris. Put plainly: Phytotoxicity in Phaseolus vulgaris (cranberry bean) assessed as visual injury at 0.075 to 0.15 kg/ha applied prior to planting relative to control. In kind it is organism-based. To be noted: in vivo, other.
Data set [21] relates to Phaseolus vulgaris. Kind of data set: Phytotoxicity in Phaseolus vulgaris (dry bean) assessed as visual injury relative to control. In kind it is organism-based. The conditions noted are these: in vivo.
Data set [22] has as its system Phaseolus vulgaris. Put plainly: Phytotoxicity in Phaseolus vulgaris (pinto bean) assessed as visual injury at 75 g ai/ha applied prior to planting relative to control. The conditions noted are these: in vivo, other. In kind it is organism-based.
The test system of data set [23] is Phaseolus vulgaris. Kind of data set: Phytotoxicity in Phaseolus vulgaris (otebo bean) assessed as change in moisture content at 75 to 150 g ai/ha applied as spray during preemergence treatment for 1 to 2 days. The data set is classed as organism-based. The conditions noted are these: in vivo, other.
Data set [24] deals with Phaseolus vulgaris. Kind of data set: Phytotoxicity in Phaseolus vulgaris (otebo bean) assessed as shoot dry weight at 150 g ai/ha applied as spray during pre-emergence treatment for 1 to 2 days measured 42 days post emergence (reference value: 164 g). The data set is classed as organism-based. The conditions noted are these: in vivo, other.
The test system of data set [25] is Phaseolus vulgaris. Kind of data set: Phytotoxicity in Phaseolus vulgaris (otebo bean) assessed as shoot dry weight at 75 g ai/ha applied as spray during pre-emergence treatment for 1 to 2 days measured 42 days post emergence (reference value: 164 g). The data set is classed as organism-based. The conditions noted are these: in vivo, other.
In data set [26] the test system is Phaseolus vulgaris. Put plainly: Phytotoxicity in Phaseolus vulgaris (otebo bean) assessed as plant height at 150 g ai/ha applied as spray during pre-emergence treatment for 1 to 2 days measured 28 days post emergence (reference value: 29 cm). The data set is classed as organism-based. To be noted: in vivo, other.
The subject of data set [27] is Phaseolus vulgaris. Put plainly: Phytotoxicity in Phaseolus vulgaris (otebo bean) assessed as visual injury at 150 g ai/ha applied as spray during pre-emergence treatment for 1 to 2 days measured 28 days post emergence relative to untreated control. The data set is classed as organism-based. To be noted: in vivo, other.
The subject of data set [28] is Phaseolus vulgaris. Kind of data set: Phytotoxicity in Phaseolus vulgaris (otebo bean) assessed as visual injury at 75 g ai/ha applied as spray during pre-emergence treatment for 1 to 2 days measured 28 days post emergence relative to untreated control. In kind it is organism-based. To be noted: in vivo, other.
The test system of data set [29] is Phaseolus vulgaris. Kind of data set: Phytotoxicity in Phaseolus vulgaris (otebo bean) assessed as visual injury at 150 g ai/ha applied as spray during pre-emergence treatment for 1 to 2 days measured 14 days post emergence relative to untreated control. The data set is classed as organism-based. To be noted: in vivo, other.
For data set [30], the system named is Phaseolus vulgaris. Kind of data set: Phytotoxicity in Phaseolus vulgaris (otebo bean) assessed as visual injury at 75 g ai/ha applied as spray during pre-emergence treatment for 1 to 2 days measured 14 days post emergence relative to untreated control. To be noted: in vivo, other. In kind it is organism-based.
In data set [31] the test system is Phaseolus vulgaris. Kind of data set: Phytotoxicity in Phaseolus vulgaris (otebo bean) assessed as visual injury at 150 g ai/ha applied as spray during pre-emergence treatment for 1 to 2 days measured 7 days post emergence relative to untreated control. In kind it is organism-based. The conditions noted are these: in vivo, other.
For data set [32], the system named is Phaseolus vulgaris. Kind of data set: Phytotoxicity in Phaseolus vulgaris (otebo bean) assessed as visual injury at 75 g ai/ha applied as spray during pre-emergence treatment for 1 to 2 days measured 7 days post emergence relative to untreated control. In kind it is organism-based. To be noted: in vivo, other.

On to `CCc1cccc(C)c1N(C(=O)CCl)[C@@H](C)COC` [S-METOLACHLOR], for which the Activity is 29 cm in data set [1]; 30 cm in data set [2]; 164 g in [3]; “Non-toxic” in [6]; 175 g in data set [7]; 0% in data set [8]. For the same compound, the Activity in data set [9] came to 0%; in data set [10], 2%; in [11], 1%; in data set [12] it was 4%; in data set [13], 2%. Also, the values for the Crop_yield in data set [4] and in [5] were 4.6 tons/ha and 4.1 tons/ha, respectively.

Regarding `CCc1cnc(C2=NC(C)(C(C)C)C(=O)N2)c(C(=O)O)c1` (configuration not stated) [IMAZETHAPYR], the Activity is 26 cm in data set [14]; “<= 6%” in data set [15]; less than 5% in data set [16]; less than 5% in [20]; “<= 20%” in [21]; less than 6% in [22]. Further, the Activity result in [23] was “Non-toxic”; in data set [24], 95 g; in data set [25], 118 g; in [26] it was 22 cm; in data set [27] it was 16%; in data set [28] it was 6%. The Activity in data set [29] was 1%; in data set [30], 0%; in data set [31], 0%; in data set [32], 0%. Moreover, the Crop_yield stood at 2.9 tons/ha in data set [17], 3.2 tons/ha in data set [18] and 49% in data set [19].
